Measured values published in patent US10556922B2, “Crystalline and amorphous forms of 17-alpha-hydroxyprogesterone caproate” (AMAG Pharmaceuticals, Inc., priority 2015, dated 2020).
Values after ≈ are worked out from the molar mass of the structure shown. Like-named read-outs stand apart in the source and are kept apart here.

Key:
[1] = Solution-mediated transformation studies (relative physical stability of Form A and Form B versus temperature); format: physicochemical
Experimental: Solution-mediated transformation studies were conducted to establish the relative physical stability of Form A and Form B versus temperature. Excess solid was suspended in a slurry using various solvents, including mixtures of benzyl benzoate and castor oil. After equilibration times of 1 day to two weeks, the excess solid was filtered and analyzed by powder x-ray diffraction to determine the crystalline form.

[2] = Solubility of crystalline HPC in organic solvents; format: physicochemical; conditions: organic solvent or mixture, 25° C.

relative physical stability ([1]; below 27° C.)	relative physical stability ([1]; below room temperature, additional studies)	physical stability on storage ([1]; storage temperatures of room temperature (20-25° C.) or below (refrigeration))	solubility ([2]; ethanol, read-out: solubility in ethanol)	solubility ([2]; ethyl acetate, read-out: solubility in ethyl acetate)	solubility ([2]; isopropanol, read-out: solubility in isopropanol)	solubility ([2]; methanol, read-out: solubility in methanol)	relative physical stability ([1]; above 35° C.)	Compound
more stable (less soluble)	likely to be more stable	physically stable polymorph	–	–	–	–	–	CCCCCC(=O)O[C@]1(C(C)=O)CC[C@H]2[C@@H]3CCC4=CC(=O)CC[C@]4(C)[C@H]3CC[C@@]21C [Form B, 17-α-hydroxyprogesterone caproate]
–	–	–	~118 mg/mL (≈ 275 mM)	~419 mg/mL (≈ 978 mM)	~91 mg/mL (≈ 212 mM)	~142 mg/mL (≈ 331 mM)	more stable (less soluble)	CCCCCC(=O)O[C@]1(C(C)=O)CC[C@H]2[C@@H]3CCC4=CC(=O)CC[C@]4(C)[C@H]3CC[C@@]21C [Form A, 17-α-hydroxyprogesterone caproate]
